ChEMBL document CHEMBL3734739, “Synthesis and biological evaluation of novel derivatives of gambogenic acid as anticancer agents” (Medchemcomm, 2015)
Calls of active or inactive are those of the source. The rule behind the calls is not given here.

What was measured:
HepG2 [1] = test: Cytotoxicity against human HepG2 cells by MTT assay; format: functional, cell-based
U-251 = test: Cytotoxicity against human U251 cells by MTT assay; format: functional, cell-based
A549 = test: Cytotoxicity against human A549 cells by MTT assay; format: functional, cell-based
[2] = Cytotoxicity against human PANC1 cells by MTT assay; format: functional, cell-based; conditions: PANC-1
HepG2 [3] = test: Induction of apoptosis in human HepG2 cells assessed as ratio of Bcl2/Bax at 1.25 uM after 72 hrs by western blot analysis; format: functional
HepG2 [4] = test: Cell cycle arrest in human HepG2 cells at 0.3125 to 1.25 uM by propidium iodide staining based flow cytometric analysis; format: functional; conditions: TDE = time-dependent effect
HepG2 [5] = test: Induction of apoptosis in human HepG2 cells assessed as ratio of Bcl2/Bax at 0.625 uM after 72 hrs by western blot analysis; format: functional
HepG2 [6] = test: Induction of apoptosis in human HepG2 cells assessed as ratio of Bcl2/Bax at 0.3125 uM after 72 hrs by western blot analysis; format: functional
HepG2 [7] = test: Induction of apoptosis in human HepG2 cells at […] to 1.25 uM after 48 hrs by annexin V/propidium iodide staining-based flow cytometric analysis relative to control; format: functional, cell-based
HepG2 [8] = test: Cell cycle arrest in human HepG2 cells assessed as accumulation at S phase at 0.3125 to 1.25 uM by propidium iodide staining based flow cytometric analysis; format: functional
HepG2 [9] = test: Cell cycle arrest in human HepG2 cells after 24 hrs by propidium iodide staining based flow cytometric analysis; format: functional

| Structure (SMILES) | IC50 (HepG2 [1]) [µM] | IC50 (U-251) [µM] | IC50 (A549) [µM] | IC50 [2] [µM] | Ratio (HepG2 [3]) | Activity (HepG2 [4]) | Activity (HepG2 [1]) | Ratio (HepG2 [5]) | Ratio (HepG2 [6]) | Activity (HepG2 [7]) | Activity (HepG2 [8]) | Activity (HepG2 [9]) |
| --- | --- | --- | --- | --- | --- | --- | --- | --- | --- | --- | --- | --- |
| CC(C)=CCC/C(C)=C/Cc1c(O)c(CC=C(C)C)c2c(c1O)C(=O)C1=C[C@H]3C[C@H]4C(C)(C)O[C@](C/C=C(/C)C(=O)OCCN5CCOCC5)(C3=O)[C@]14O2 | 6.36 | 4.93 | 4.27 | 1.89 | – | – | – | – | – | – | – | – |
| CC(C)=CCC/C(C)=C/Cc1c(O)c(CC=C(C)C)c2c(c1O)C(=O)C1=C[C@H]3C[C@H]4C(C)(C)O[C@](C/C=C(/C)C(=O)OCCCN5CCN(CCO)CC5)(C3=O)[C@]14O2 | 2.75 | 1.18 | 1.51 | 2.52 | – | – | – | – | – | – | – | – |
| CC(C)=CCC/C(C)=C/Cc1c(O)c(CC=C(C)C)c2c(c1O)C(=O)C1=C[C@@H]3C[C@@H]4C(C)(C)O[C@@](C/C=C(/C)C(=O)OCCN5CCN(C)CC5)(C3=O)[C@@]14O2 | 2.83 | 3.45 | 1.61 | 2.61 | – | – | – | – | – | – | – | – |
| CC(C)=CCC/C(C)=C/Cc1c(O)c(CC=C(C)C)c2c(c1O)C(=O)C1=C[C@@H]3C[C@@H]4C(C)(C)O[C@@](C/C=C(/C)C(=O)OCCCCN5CCOCC5)(C3=O)[C@@]14O2 | 14.3 | 21.6 | 3.17 | 18.6 | – | – | – | – | – | – | – | – |
| CC(C)=CCC/C(C)=C/Cc1c(O)c(CC=C(C)C)c2c(c1O)C(=O)C1=C[C@@H]3C[C@@H]4C(C)(C)O[C@@](C/C=C(/C)C(=O)OCCCN5CCN(C)CC5)(C3=O)[C@@]14O2 | 0.98 | 1.13 | 1.65 | 0.45 | 0.251 | tde | Dose-dependent effect | 0.478 | 0.598 | Active | Active | Dose-dependent effect |
| CC(C)=CCC/C(C)=C/Cc1c(O)c(CC=C(C)C)c2c(c1O)C(=O)C1=C[C@H]3C[C@H]4C(C)(C)O[C@](C/C=C(/C)C(=O)OCCCN5CCOCC5)(C3=O)[C@]14O2 | 5.79 | 3.31 | 1.3 | 2.36 | – | – | – | – | – | – | – | – |
| CC(C)=CCC/C(C)=C/Cc1c(O)c(CC=C(C)C)c2c(c1O)C(=O)C1=C[C@@H]3C[C@H]4C(C)(C)O[C@@](C/C=C(/C)C(=O)OCCN5CCN(CCO)CC5)(C3=O)[C@@]14O2 | 3.87 | 3.82 | 2.44 | 2.51 | – | – | – | – | – | – | – | – |
| CC(C)=CCC/C(C)=C/Cc1c(O)c(CC=C(C)C)c2c(c1O)C(=O)C1=C[C@@H]3C[C@@H]4C(C)(C)O[C@@](C/C=C(/C)C(=O)OCCCCN5CCN(C)CC5)(C3=O)[C@@]14O2 | 10.8 | 17.5 | 3.23 | 7.57 | – | – | – | – | – | – | – | – |
| CC(C)=CCC/C(C)=C/Cc1c(O)c(CC=C(C)C)c2c(c1O)C(=O)C1=C[C@@H]3C[C@H]4C(C)(C)O[C@@](C/C=C(/C)C(=O)OCCCCN5CCN(CCO)CC5)(C3=O)[C@@]14O2 | 0.57 | 1.46 | 9.53 | 0.79 | – | – | – | – | – | – | – | – |
| CCN(CC)CCCOC(=O)/C(C)=C\C[C@@]12OC(C)(C)[C@H]3C[C@@H](C=C4C(=O)c5c(O)c(C/C=C(\C)CCC=C(C)C)c(O)c(CC=C(C)C)c5O[C@]431)C2=O | 2.64 | 2.05 | 2.94 | 2.85 | – | – | – | – | – | – | – | – |
| CC(C)=CCC/C(C)=C/Cc1c(O)c(CC=C(C)C)c2c(c1O)C(=O)C1=C[C@H]3C[C@H]4C(C)(C)O[C@](C/C=C(/C)C(=O)OCCCN5CCCCC5)(C3=O)[C@]14O2 | 3.59 | 8.87 | 2.54 | 4.66 | – | – | – | – | – | – | – | – |
| CCN(CC)CCCCOC(=O)/C(C)=C\C[C@]12OC(C)(C)[C@@H]3C[C@H](C=C4C(=O)c5c(O)c(C/C=C(\C)CCC=C(C)C)c(O)c(CC=C(C)C)c5O[C@@]431)C2=O | 2.41 | 4.62 | 3.18 | 1.84 | – | – | – | – | – | – | – | – |
| CC(C)=CCC/C(C)=C/Cc1c(O)c(CC=C(C)C)c2c(c1O)C(=O)C1=C[C@@H]3C[C@H]4C(C)(C)O[C@@](C/C=C(/C)C(=O)O)(C3=O)[C@@]14O2 [GAMBOGENIC ACID] | 3.23 | 3.22 | 3.49 | 4.16 | – | – | – | – | – | – | – | – |
| CC(C)=CCC/C(C)=C/Cc1c(O)c(CC=C(C)C)c2c(c1O)C(=O)C1=C[C@H]3C[C@H]4C(C)(C)O[C@](C/C=C(/C)C(=O)OCCN5CCCCC5)(C3=O)[C@]14O2 | 0.97 | 4.93 | 1.55 | 1.89 | – | – | – | – | – | – | – | – |
| CC(C)=CCC/C(C)=C/Cc1c(O)c(CC=C(C)C)c2c(c1O)C(=O)C1=C[C@@H]3C[C@@H]4C(C)(C)O[C@@](C/C=C(/C)C(=O)OCCCCN5CCCCC5)(C3=O)[C@@]14O2 | 3.92 | 2.78 | 3.43 | 4.43 | – | – | – | – | – | – | – | – |
| CCN(CC)CCOC(=O)/C(C)=C\C[C@@]12OC(C)(C)[C@H]3C[C@@H](C=C4C(=O)c5c(O)c(C/C=C(\C)CCC=C(C)C)c(O)c(CC=C(C)C)c5O[C@]431)C2=O | 1.95 | 2.65 | 1.41 | 2.86 | – | – | – | – | – | – | – | – |
